Results on 24 compounds are retold here after US8501770B2 (ArQule, Inc., priority 2009, dated 2013).

Structures are written as SMILES.

As a reminder, the IC50 is the concentration that inhibits the measured activity by half.

Sequence of Full-length inactive AKT1 (P31749 whole entry): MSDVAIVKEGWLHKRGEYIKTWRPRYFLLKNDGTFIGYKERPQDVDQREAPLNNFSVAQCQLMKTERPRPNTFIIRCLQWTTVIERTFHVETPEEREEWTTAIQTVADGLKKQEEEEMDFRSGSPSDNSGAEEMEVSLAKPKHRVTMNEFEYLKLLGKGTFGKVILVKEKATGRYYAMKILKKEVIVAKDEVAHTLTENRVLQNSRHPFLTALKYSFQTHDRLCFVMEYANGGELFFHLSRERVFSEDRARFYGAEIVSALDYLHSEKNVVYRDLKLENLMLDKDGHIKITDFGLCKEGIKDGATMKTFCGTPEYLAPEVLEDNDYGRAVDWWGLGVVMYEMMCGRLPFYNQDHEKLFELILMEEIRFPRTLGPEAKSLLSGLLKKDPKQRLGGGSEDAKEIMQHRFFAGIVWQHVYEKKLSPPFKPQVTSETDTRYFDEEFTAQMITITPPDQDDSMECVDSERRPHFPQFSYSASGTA

The experiment concerns the target Full-length inactive AKT1 (Homo sapiens, UniProt P31749). In words: Inactive Akt Alpha Screen Assay. The format is biochemical. The following applies: values not marked with "*"; read-out: Akt1 IC50, (AlphaScreen). In short, it runs like this:
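AlphaScreen read-out (excitation 640 nm, emission 570 nm) after 90 min incubation at room temperature in the dark. Signal comes from crosstide phosphorylation by AKT1, which was activated by added PDK1, MAPKAPK2, ATP and lipid vesicles, captured via phospho-AKT substrate antibody and streptavidin beads.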
On to `CC(=O)Nc1cccc(-c2nc3c(cc2C)nc(-c2cccnc2N)n3-c2ccc(CNC(=O)c3ccccc3)cc2)c1` [Example 344, N-(4-(5-(3-acetamidophenyl)-2-(2-aminopyridin-3-yl)-6-methyl-3H-imidazo[4,5-b]pyridin-3-yl)benzyl)benzamide], for which the IC50 stood at 23 nM.

Turning to `Cc1cc2nc(-c3cccnc3N)n(-c3ccc(CNC(=O)c4ccccc4)cc3)c2nc1-c1ccccc1` [Example 345, N-(4-(2-(2-aminopyridin-3-yl)-6-methyl-5-phenyl-3H-imidazo[4,5-b]pyridin-3-yl)benzyl)benzamide], the IC50 came out at 44 nM.

In the case of `Cc1cc2nc(-c3cccnc3N)n(-c3ccc(CNC(=O)c4ccccc4)cc3)c2nc1Cl` [Example 346, N-(4-(2-(2-aminopyridin-3-yl)-5-chloro-6-methyl-3H-imidazo[4,5-b]pyridin-3-yl)benzyl)benzamide], the concentration for half-maximal inhibition (IC50) was 86 nM.

On to `CC(=O)Nc1cccc(C(=O)NCc2ccc(-n3c(-c4cccnc4N)nc4cc(C)c(C)nc43)cc2)c1` [Example 347, 3-acetamido-N-(4-(2-(2-aminopyridin-3-yl)-5,6-dimethyl-3H-imidazo[4,5-b]pyridin-3-yl)benzyl)benzamide], for which the IC50 is 54 nM.

On to `Cc1ccc2nc(-c3cccnc3N)n(-c3ccc(CC(=O)c4ccccc4)cc3)c2n1` [Example 349, 2-(4-(2-(2-aminopyridin-3-yl)-5-methyl-3H-imidazo[4,5-b]pyridin-3-yl)phenyl)-1-phenylethanone], for which the 50% inhibitory concentration (IC50) worked out at 180 nM.

Turning to `CC(C)(C)OC(=O)NC1(c2ccc(-n3c(-c4cccnc4N)nc4ccc(-c5ccccc5)nc43)cc2)CCC1` [Example 350, tert-butyl (1-(4-(2-(2-aminopyridin-3-yl)-5-phenyl-3H-imidazo[4,5-b]pyridin-3-yl)phenyl)cyclobutyl)carbamate], the concentration for half-maximal inhibition (IC50) worked out at 1400 nM.

As for `CC(C)(C)OC(=O)NCc1ccc(-n2c(-c3cccnc3N)nc3ccc(-c4cn[nH]c4)nc32)cc1` [Example 354, tert-butyl 4-(2-(2-aminopyridin-3-yl)-5-(1H-pyrazol-4-yl)-3H-imidazo[4,5-b]pyridin-3-yl)benzylcarbamate], the IC50 turned out to be 150 nM.

As for `CC(C)(C)OC(=O)NCc1ccc(-n2c(-c3cccnc3N)nc3ccc(-c4ccccc4)nc32)cc1` [Example 355, tert-butyl 4-(2-(2-aminopyridin-3-yl)-5-phenyl-3H-imidazo[4,5-b]pyridin-3-yl)benzylcarbamate], the concentration for half-maximal inhibition (IC50) was 270 nM.

Regarding `NCc1ccc(-n2c(-c3cccnc3N)nc3ccc(-c4cccc(C(=O)O)c4)nc32)cc1` [Example 357, 3-(3-(4-(aminomethyl)phenyl)-2-(2-aminopyridin-3-yl)-3H-imidazo[4,5-b]pyridin-5-yl)benzoic acid], the IC50 is 27 nM.

Consider `Nc1ncccc1-c1nc2cc(-c3ccccc3)cnc2n1-c1ccc(C2(N)CCC2)cc1` [Example 358, 3-(3-(4-(1-aminocyclobutyl)phenyl)-6-phenyl-3H-imidazo[4,5-b]pyridin-2-yl)pyridin-2-amine], for which the IC50 turned out to be 55 nM.

As to `CC(=O)Nc1cccc(-c2cnc3c(c2)nc(-c2cccnc2N)n3-c2ccc(C3(N)CCC3)cc2)c1` [Example 359, N-(3-(3-(4-(1-aminocyclobutyl)phenyl)-2-(2-aminopyridin-3-yl)-3H-imidazo[4,5-b]pyridin-6-yl)phenyl)acetamide], the half-maximal inhibitory concentration (IC50) came to 57 nM.

`COC(=O)C1(c2ccc(-n3c(-c4cccnc4N)nc4cc(-c5ccccc5)cnc43)cc2)CCC1` [Example 361, methyl 1-(4-(2-(2-aminopyridin-3-yl)-6-phenyl-3H-imidazo[4,5-b]pyridin-3-yl)phenyl)cyclobutanecarboxylate]: the half-inhibitory concentration (IC50) stood at 360 nM.

`Nc1ncccc1-c1nc2cc(-c3ccccc3)cnc2n1-c1ccc(C2(C(=O)O)CCC2)cc1` [Example 363, 1-(4-(2-(2-aminopyridin-3-yl)-6-phenyl-3H-imidazo[4,5-b]pyridin-3-yl)phenyl)cyclobutanecarboxylic acid]: the IC50 was 250 nM.

`CCOC(=O)c1cccc(-c2ccc3nc(-c4cccnc4N)n(-c4ccc(C5(N)CCC5)cc4)c3n2)c1` [Example 364, ethyl 3-(3-(4-(1-aminocyclobutyl)phenyl)-2-(2-aminopyridin-3-yl)-3H-imidazo[4,5-b]pyridin-5-yl)benzoate]: the half-inhibitory concentration (IC50) was determined as 1.6 nM.

With `NC(=O)c1cccc(-c2ccc3nc(-c4cccnc4N)n(-c4ccc(C5(N)CCC5)cc4)c3n2)c1` [Example 365, 3-(3-(4-(1-aminocyclobutyl)phenyl)-2-(2-aminopyridin-3-yl)-3H-imidazo[4,5-b]pyridin-5-yl)benzamide], the half-maximal inhibitory concentration (IC50) is 3 nM.

For `CS(=O)(=O)Nc1ncccc1-c1nc2ccc(-c3ccccc3)nc2n1-c1ccc(C2(NS(C)(=O)=O)CCC2)cc1` [Example 366, N-(3-(3-(4-(1-(methylsulfonamido)cyclobutyl)phenyl)-5-phenyl-3H-imidazo[4,5-b]pyridin-2-yl)pyridin-2-yl)methanesulfonamide], the half-maximal inhibitory concentration (IC50) turned out to be 140 nM.

Turning to `CS(=O)(=O)NC1(c2ccc(-n3c(-c4cccnc4N)nc4ccc(-c5ccccc5)nc43)cc2)CCC1` [Example 367, N-(1-(4-(2-(2-aminopyridin-3-yl)-5-phenyl-3H-imidazo[4,5-b]pyridin-3-yl)phenyl)cyclobutyl)methanesulfonamide], the IC50 was 180 nM.

With `Nc1ncc(Cl)cc1-c1nc2ccc(-c3ccccc3)nc2n1-c1ccc(C2(N)CCC2)cc1` [Example 368, 3-(3-(4-(1-aminocyclobutyl)phenyl)-5-phenyl-3H-imidazo[4,5-b]pyridin-2-yl)-5-chloropyridin-2-amine], the half-maximal inhibitory concentration (IC50) came to 10 nM.

Consider `CNC(=O)c1cccc(-c2ccc3nc(-c4cccnc4N)n(-c4ccc(CN)cc4)c3n2)c1` [Example 369, 3-(3-(4-(aminomethyl)phenyl)-2-(2-aminopyridin-3-yl)-3H-imidazo[4,5-b]pyridin-5-yl)-N-methylbenzamide], for which the concentration for half-maximal inhibition (IC50) stood at 5.4 nM.

As for `CNC(=O)c1cccc(-c2ccc3nc(-c4cccnc4N)n(-c4ccc(C5(N)CCC5)cc4)c3n2)c1` [Example 370, 3-(3-(4-(1-aminocyclobutyl)phenyl)-2-(2-aminopyridin-3-yl)-3H-imidazo[4,5-b]pyridin-5-yl)-N-methylbenzamide], the half-inhibitory concentration (IC50) came to 4.6 nM.

`CC(=O)c1cccc(-c2ccc3nc(-c4cccnc4N)n(-c4ccc(C5(N)CCC5)cc4)c3n2)c1` [Example 372, 1-(3-(3-(4-(1-aminocyclobutyl)phenyl)-2-(2-aminopyridin-3-yl)-3H-imidazo[4,5-b]pyridin-5-yl)phenyl)ethanone]: the IC50 came out at 2.1 nM.

Turning to `Nc1ncccc1-c1nc2ccc(-c3ccccc3)nc2n1-c1ccc(C2(N)COC2)cc1` [Example 373, 3-(3-(4-(3-aminooxetan-3-yl)phenyl)-5-phenyl-3H-imidazo[4,5-b]pyridin-2-yl)pyridin-2-amine], the IC50 amounted to 6.6 nM.

For `Nc1ncccc1-c1nc2ccc(-c3cccc(CO)c3)nc2n1-c1ccc(C2(N)CCC2)cc1` [Example 374, (3-(3-(4-(1-aminocyclobutyl)phenyl)-2-(2-aminopyridin-3-yl)-3H-imidazo[4,5-b]pyridin-5-yl)phenyl)methanol], the IC50 was 1.3 nM.

Regarding `CS(=O)(=O)Nc1cccc(-c2ccc3nc(-c4cccnc4N)n(-c4ccc(C5(N)CCC5)cc4)c3n2)c1` [Example 375, N-(3-(3-(4-(1-aminocyclobutyl)phenyl)-2-(2-aminopyridin-3-yl)-3H-imidazo[4,5-b]pyridin-5-yl)phenyl)methanesulfonamide], the IC50 stood at 1.4 nM.
